Biological target: T1, MlaFEDB (Acinetobacter baumannii, UniProt A0A086HZU3)
T1 construct: gene ttg2A
Conditions: 1 mM vanadate; traps ADP-vanadate at the MlaF ATP sites

T1 sequence (V5V9K5 entry or part of it): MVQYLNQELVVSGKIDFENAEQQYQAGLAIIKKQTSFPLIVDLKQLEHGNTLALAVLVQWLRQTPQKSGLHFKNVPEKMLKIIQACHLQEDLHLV
T1 sequence (V5V9F4 entry or part of it, further chain): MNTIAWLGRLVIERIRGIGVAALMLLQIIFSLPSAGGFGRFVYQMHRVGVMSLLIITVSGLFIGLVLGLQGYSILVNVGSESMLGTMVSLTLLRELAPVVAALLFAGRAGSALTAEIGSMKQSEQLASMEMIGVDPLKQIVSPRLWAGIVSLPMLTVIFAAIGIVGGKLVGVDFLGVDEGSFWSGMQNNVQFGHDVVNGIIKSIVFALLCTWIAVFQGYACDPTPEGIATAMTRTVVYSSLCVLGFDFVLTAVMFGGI
T1 sequence (A0A086HZU3 entry or part of it): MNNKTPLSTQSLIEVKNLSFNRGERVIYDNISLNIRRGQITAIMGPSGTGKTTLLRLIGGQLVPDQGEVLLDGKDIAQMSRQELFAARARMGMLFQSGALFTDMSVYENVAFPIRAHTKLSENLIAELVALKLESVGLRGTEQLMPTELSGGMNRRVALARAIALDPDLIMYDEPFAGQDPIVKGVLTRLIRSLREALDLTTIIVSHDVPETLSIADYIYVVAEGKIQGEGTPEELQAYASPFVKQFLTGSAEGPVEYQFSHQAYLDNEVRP
T1 sequence (V5V921 entry or part of it, further chain): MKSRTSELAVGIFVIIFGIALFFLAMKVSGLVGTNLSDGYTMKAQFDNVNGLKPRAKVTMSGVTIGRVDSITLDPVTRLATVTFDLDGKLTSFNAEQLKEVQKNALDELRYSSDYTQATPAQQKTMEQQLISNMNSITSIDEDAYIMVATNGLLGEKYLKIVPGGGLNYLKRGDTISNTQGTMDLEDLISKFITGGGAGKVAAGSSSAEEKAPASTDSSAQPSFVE

## [O]=[V]([OH])([OH])[OH] [sodium ortho-vanadate]
  % inhibition at 1 mM: ~ 50%
